Assay results as given in US7090853B2, “Noscapine derivatives as adjuvant compositions and methods of use thereof” (Emory University, priority 1999, dated 2006).
“Also recorded” adds a separate entry of the source. Marks after values point to notes of the source that are not given here.

What was measured:
E.G7-OVA tumor cells = test: Survival and tumor regression of E.G7-OVA tumor-bearing mice, noscapine in drinking water; type: in vivo, C57BL/6 mice
Method: C57BL/6 mice were injected s.c. with 2×10^6 E.G7-OVA tumor cells. Three days later, two groups received the indicated dose of noscapine in their drinking water. There were 5 mice/group. Untreated mice survived from 6 to 7 weeks after tumor inoculation. In marked contrast, the majority of the mice treated with 1.5 or 3.0 mg/ml Noscapine survived for greater than 16 weeks when the experiment was terminated.
(§1) FIGS. 3A–3I show B6 mice were injected subcutaneously with 2×10^6 E.G7-OVA tumor cells and after three days half of the mice were treated continuously with 1.5 or 3.0 mg noscapine/ml of drinking water. All of the untreated mice developed tumors and were euthanized after three weeks. […] Normal B6 mice (A–C) and mice treated for 3 months with noscapine (D–F) were euthanized.
To test whether E.G7-OVA tumor induced tolerance, tumors were ablated by treating the mice with noscapine in the drinking water beginning three days after tumor transplantation. Tumors grew in all mice that had received E.G7-OVA without noscapine.

bovine brain tubulin = bovine brain tubulin (Bos taurus, UniProt P81947+Q6B856); test: Microtubule assembly, turbidity at 350 nm; type: biochemical; settings: 20 μM noscapine, G-PEM buffer, 37° C.
Method: Phosphocellulose purified bovine brain tubulin was employed throughout these biophysical experiments. Fluorescence titration for determining binding constants was performed according to Peyrot, V. et al., Biochemistry 31, 11125 (1992). […], at room temperature, 2 μM tubulin in 100 mM PIPES, 2 mM EGTA, 1 mM MgCl2 was excited at 278 nm, and the fluorescence emission spectra were recorded with bandwidths […]. The fluorescence emission intensity of noscapine at this excitation wavelength was negligible and at the concentration of noscapine used it gave no appreciable inner filter effect. The concentration of noscapine was raised in increments of 0.5 μM, until the decrease in the fluorescence intensity was saturated. The value of the dissociation constant and the number of sites were obtained from Scatchard plots using the equation, r/[L]free=n/K^d−r/Kd, where r is the ratio of the concentration of bound ligand to the total protein concentration and n is the number of binding sites. […] Microtubule assembly was recorded on a spectrophotometer with thermocontroler, The cuvettes (0.4 cm path) containing 100 mM PIPES, 2 mM EGTA, 1 mM MgCl2 and 1 mM GTP (G-PEM buffer), and 20 μM noscapine/DMSO were kept at room temperature before addition of tubulin and shifting to 37° C. […] The assembly was monitored by measuring the changes in turbidity at […]. intervals. […]

OVA = test: OVA-specific immune responses of noscapine-treated tumor survivors after OVA in CFA; type: in vivo, B6 mice; settings: for IFNγ / cytokine production by lymph node CD4+ T cells / OVA-specific antibody responses: tumor survivors vs control mice, ELISA
Method: (FIG. 2A) antibody responses were measured by ELISA with OVA coated microtiter plates,
(FIG. 2B) IFNγ production by lymphnode cells was measured by ELlSA by comparison with recombinant IFNγ and
(FIG. 2C) CTL responses were measured using ^51Cr labeled target cells.
Untreated, control B6 mice and noscapine treated mice whose tumors regressed, were injected with OVA in CFA to test whether the tumor had induced tolerance to OVA. […] Moreover, the OVA-specific CTL response of mice that recovered from the tumor was enhanced by 10- to 30-fold compared to the response of non-tumor bearing controls (FIG. 2C) (14).

solid lymphoid tumors = test: Apoptosis in solid lymphoid tumors induced in mice (H&E microscopy); type: in vivo; settings: Haemotoxline and Eosine stained cells
[1] = Histology and general toxicity in noscapine-treated mice; type: in vivo, B6 mice
Method: as §1
FIGS. 4A–4D show B6 mice were treated with 1.5 mg noscapine/ml in their drinking water or acidified water, as a negative control. One week later mice were injected with OVA in CFA. Mice were sacrificed two weeks later. […] Thus, Noscapine had no detectable toxic effect on lymphoid cells that are proliferating in response to immunization. […] The response of the gut to Noscapine is one of mild irritation. […]

HL-60 cells = test: Apoptosis of HL-60 cells, DAPI staining of nuclear chromatin; type: cell-based; settings: for Apoptic Cell Percentage: 24 hours
Method: Morphological changes in the nuclear chromatin of HL-60 cells undergoing apoptosis were detected by staining with 4′,6-diamidino-2-phenylindole (DAPI). In brief, 0.5×10^6 to 3×10^6 cells were fixed with 4% glutaraledebyde, 0.2% Triton x-100, in PBS and incubated at room temperature for 10 min., then centrifuged at 1000×g for 10 min., resuspended in 20 μl 0.1% DAPI ethanol. Following 15 min, incubation at room temperature, at 10 μl aliquot was placed on a glass slide, and 400 cells per slide were scored for the incidence of apoptotic chromatin changes with a fluorescence microscope.

Sequence of bovine brain tubulin (P81947 whole entry): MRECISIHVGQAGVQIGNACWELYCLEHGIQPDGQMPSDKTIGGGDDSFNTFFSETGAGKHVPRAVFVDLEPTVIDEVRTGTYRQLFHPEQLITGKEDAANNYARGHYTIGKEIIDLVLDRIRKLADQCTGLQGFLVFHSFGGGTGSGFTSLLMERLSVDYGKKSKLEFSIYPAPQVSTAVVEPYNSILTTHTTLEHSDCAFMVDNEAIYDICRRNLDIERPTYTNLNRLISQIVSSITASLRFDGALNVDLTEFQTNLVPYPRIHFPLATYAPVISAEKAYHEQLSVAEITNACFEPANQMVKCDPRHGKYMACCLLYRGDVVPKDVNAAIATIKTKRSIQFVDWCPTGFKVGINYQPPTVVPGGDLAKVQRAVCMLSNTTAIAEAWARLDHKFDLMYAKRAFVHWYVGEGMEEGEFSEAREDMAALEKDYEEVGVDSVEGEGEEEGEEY
Sequence of bovine brain tubulin (Q6B856 whole entry): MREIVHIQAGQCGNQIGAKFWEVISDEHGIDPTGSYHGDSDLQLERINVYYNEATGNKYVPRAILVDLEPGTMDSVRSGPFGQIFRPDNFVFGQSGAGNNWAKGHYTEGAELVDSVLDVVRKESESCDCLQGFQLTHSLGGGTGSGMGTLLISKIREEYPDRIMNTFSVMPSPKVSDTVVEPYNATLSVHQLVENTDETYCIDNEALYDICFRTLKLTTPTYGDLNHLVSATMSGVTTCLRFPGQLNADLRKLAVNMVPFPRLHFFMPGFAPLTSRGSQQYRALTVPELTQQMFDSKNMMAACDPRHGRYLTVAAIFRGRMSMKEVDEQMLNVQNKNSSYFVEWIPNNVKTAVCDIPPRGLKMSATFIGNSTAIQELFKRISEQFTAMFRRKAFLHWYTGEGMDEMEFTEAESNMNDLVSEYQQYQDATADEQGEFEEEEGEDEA

COc1ccc2c(c1OC)C(=O)O[C@@H]2[C@H]1c2c(cc3c(c2OC)OCO3)CCN1C [Noscapine]
tumor regression (E.G7-OVA tumor cells; 1.5 or 3.0 mg noscapine/ml of drinking water, continuous): disappeared and did not return during four months of continuous treatment; also recorded: majority of tumors in mice treated with noscapine regress | survival after tumor inoculation (E.G7-OVA tumor cells; majority of mice, 1.5 or 3.0 mg/ml in drinking water from day 3, experiment terminated at 16 weeks): greater than 16 weeks | tubulin assembly (absorbance at 350 nm) (bovine brain tubulin): promotes tubulin assembly | CTL responses after immunization with OVA in CFA (OVA; tumor survivors treated with Noscapine vs control mice, 51Cr labeled target cells): enhanced | IFNγ / cytokine production by lymph node CD4+ T cells (OVA): indistinguishable from control mice | OVA-specific antibody responses (OVA): indistinguishable from control mice | IFNγ / cytokine production by lymph node CD4+ T cells (OVA; listed as noscapine): identical | OVA-specific antibody responses (OVA; listed as noscapine): identical | apoptotic morphologies in tumor cells (solid lymphoid tumors): many cells in noscapine treated mice with apoptotic morphologies | histology of small intestine ([1]; 1.5 mg noscapine/ml drinking water vs acidified water): mild edema of the villi and goblet cell hyperplasia; also recorded: edema, increased frequency of goblet cells, and prominent crypt cells | histology of spleen / lymph nodes ([1]; 1.5 mg noscapine/ml drinking water vs acidified water, immunized with OVA in CFA): no alterations from control mice; also recorded: no significant differences | liver inflammation ([1]; 3.0 mg dose of noscapine): few small areas of inflammation | histological evidence of toxicity to the kidney, liver, or heart ([1]; mouse, in vivo): no significant histological evidence of toxicity | health, body weight and appearance ([1]; noscapine in drinking water): healthy and had normal weights and appearance; also recorded: healthy and of the same weight as the control mice | number of mitotic figures in the crypts of the small intestine ([1]; noscapine in drinking water vs control mice): approximately equal | histology of heart, kidney and liver ([1]; treated for 3 months with noscapine in drinking water, H & E): no significant differences | Apoptic Cell Percentage (HL-60 cells; 20 μM in DMSO, two trials, result for each trial shown): 30.17† % | Apoptic Cell Percentage (HL-60 cells; 50 μM in DMSO): 27% | Initiation of apoptosis (HL-60 cells; DAPI staining): initiate apoptosis
